#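 Method: 48-hour compound exposure of cells in 96-well plates, five concentrations, linear interpolation of endpoints. GI50 is the concentration that inhibits growth by half.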 Activity calls are given as the source filed them. Cut-off read from the data, not from the text of the source: active = GI50 up to about 1.1 µM and inactive = higher.
# How the values were obtained:
# Experiment in all cases: DTP human tumour cell line panel, 48 h
# A498 = tested on: A498
# SNB-75 = tested on: SNB-75
# UO-31 = tested on: UO-31
# CCRF-CEM = tested on: CCRF-CEM
# HT-29 = tested on: HT-29
# NCI-H226 = tested on: NCI-H226
# MCF7 = tested on: MCF7
# MOLT-4 = tested on: MOLT-4
# HCT-116 = tested on: HCT-116
# U-251 = tested on: U-251
# OVCAR-3 = tested on: OVCAR-3
# PC-3 = tested on: PC-3
# NCI-H522 = tested on: NCI-H522
# OVCAR-5 = tested on: OVCAR-5
# A549 = tested on: A549
# CAKI-1 = tested on: CAKI-1
# HOP-92 = tested on: HOP-92
# K562 = tested on: K562
# SK-MEL-5 = tested on: SK-MEL-5
# NCI/ADR-RES = tested on: NCI/ADR-RES
SMILES,GI50 (A498),GI50 (SNB-75),GI50 (UO-31),GI50 (CCRF-CEM),GI50 (HT-29),GI50 (NCI-H226),GI50 (MCF7),GI50 (MOLT-4),GI50 (HCT-116),GI50 (U-251),GI50 (OVCAR-3),GI50 (PC-3),GI50 (NCI-H522),GI50 (OVCAR-5),GI50 (A549),GI50 (CAKI-1),GI50 (HOP-92),GI50 (K562),GI50 (SK-MEL-5),GI50 (NCI/ADR-RES)
Nc1nc(Sc2ccc([N+](=O)[O-])cn2)c2nc[nH]c2n1,11.8 µM (inactive),5.2 µM (inactive),3.99 µM (inactive),2.77 µM (inactive),4.86 µM (inactive),12.6 µM (inactive),5.89 µM (inactive),4.56 µM (inactive),3.94 µM (inactive),15.7 µM (inactive),8.93 µM (inactive),14 µM (inactive),12.3 µM (inactive),3.47 µM (inactive),15.1 µM (inactive),7.13 µM (inactive),3.6 µM (inactive),7.01 µM (inactive),14.4 µM (inactive),3.78 µM (inactive)
Cc1ccc(C(=O)CC(O)(C(F)(F)F)C(F)(F)F)cc1[N+](=O)[O-],21.3 µM (inactive),18.3 µM (inactive),5.81 µM (inactive),4.63 µM (inactive),1.87 µM (inactive),20.2 µM (inactive),3.14 µM (inactive),16.7 µM (inactive),5.3 µM (inactive),14.2 µM (inactive),2.2 µM (inactive),11.3 µM (inactive),0.331 µM (active),18 µM (inactive),11.1 µM (inactive),2.36 µM (inactive),9.4 µM (inactive),2.79 µM (inactive),16.4 µM (inactive),16.3 µM (inactive)
O=C(O)/C=C/C(=O)Nc1cccc2c1-c1ccccc1C2=O,53 µM (inactive),> 20.6 µM (inactive),11.8 µM (inactive),4.32 µM (inactive),22.3 µM (inactive),31.2 µM (inactive),11.3 µM (inactive),2.63 µM (inactive),42.8 µM (inactive),5.27 µM (inactive),2.21 µM (inactive),5.7 µM (inactive),3.25 µM (inactive),> 63.4 µM (inactive),20.9 µM (inactive),4.26 µM (inactive),4.06 µM (inactive),3.91 µM (inactive),4.39 µM (inactive),10.3 µM (inactive)
O=C(O)CN(CC(=O)O)c1ccccc1,> 100 µM (inactive),> 100 µM (inactive),> 100 µM (inactive),34 µM (inactive),59.4 µM (inactive),> 100 µM (inactive),> 100 µM (inactive),> 100 µM (inactive),56.5 µM (inactive),74.5 µM (inactive),75.2 µM (inactive),56 µM (inactive),26.9 µM (inactive),> 100 µM (inactive),> 100 µM (inactive),> 100 µM (inactive),48.9 µM (inactive),35 µM (inactive),84.5 µM (inactive),> 100 µM (inactive)

# — ChEMBL document CHEMBL1201862, “PubChem BioAssay data set” (2004)
